The values that follow come from patent US8754073B2, “Substituted piperazino-dihydrothienopyrimidines” (Boehringer Ingelheim International GmbH, priority 2007, dated 2014).

As usually defined, the inhibition is the share of the control response that was lost under treatment.

Structures are written as SMILES.

Sequence of PDE4B (Q07343 whole entry, species assumed): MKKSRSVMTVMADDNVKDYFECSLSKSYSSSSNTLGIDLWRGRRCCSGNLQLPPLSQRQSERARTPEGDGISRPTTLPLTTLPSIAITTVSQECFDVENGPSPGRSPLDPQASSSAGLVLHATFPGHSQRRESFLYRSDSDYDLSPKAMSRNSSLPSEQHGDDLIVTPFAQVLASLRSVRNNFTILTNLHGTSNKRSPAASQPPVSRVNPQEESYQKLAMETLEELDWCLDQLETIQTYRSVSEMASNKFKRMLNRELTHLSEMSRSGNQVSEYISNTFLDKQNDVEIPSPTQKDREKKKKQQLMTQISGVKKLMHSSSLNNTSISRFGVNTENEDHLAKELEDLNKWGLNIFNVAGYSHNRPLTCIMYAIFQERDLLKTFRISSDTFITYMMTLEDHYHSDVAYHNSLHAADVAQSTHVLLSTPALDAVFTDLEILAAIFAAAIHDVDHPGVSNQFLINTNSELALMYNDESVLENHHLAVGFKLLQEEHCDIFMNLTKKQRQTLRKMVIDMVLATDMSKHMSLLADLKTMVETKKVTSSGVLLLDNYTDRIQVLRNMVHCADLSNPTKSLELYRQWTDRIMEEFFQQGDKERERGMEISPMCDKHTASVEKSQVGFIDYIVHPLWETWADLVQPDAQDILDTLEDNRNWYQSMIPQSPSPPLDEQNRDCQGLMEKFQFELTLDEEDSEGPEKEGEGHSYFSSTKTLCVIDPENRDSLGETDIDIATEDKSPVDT

For one assay, the target named is PDE4B (Homo sapiens, UniProt Q07343). The assay is described as follows: Scintillation Proximity Assay (SPA) of PDE4B enzyme activity ([H3]-cAMP cleavage). To be noted: test substance 1 μM; one-hour incubation of [H3]-cAMP with PDE4B enzyme at 30° C. The format is biochemical. A digest of the protocol:
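SPA read-out: [H3]-cAMP incubated with PDE4B in assay buffer for 1 h at 30 °C, with and without test compound at 1 μM. Reaction stopped by adding yttrium silicate beads that bind the [H3]-AMP product; after 45 min settling, scintillation counted. Value is % inhibition at 1 μM.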
The compound `[O-][S+]1CCc2nc(N3CCC(c4ccc5ccccc5c4)CC3)nc(Nc3cccc(F)c3)c21` (stereo not drawn) [Example 142] yielded an inhibition at 1 µM of 94%. On the same count and under the same terms, then `[O-][S+]1CCc2nc(N3CCC(c4noc5cc(F)ccc45)CC3)nc(NC3CCOCC3)c21` (stereo not drawn) [Example 121], with 96%; and `CS(=O)(=O)N1CC2(CCN(c3nc4c(c(NC5CCOCC5)n3)[S+]([O-])CC4)CC2)c2ccccc21` (stereo not drawn) [Example 59], with 90%. Still for that read-out and setting: then `CC(C)[C@H](CO)Nc1nc(N2CCC(c3nnc(-c4ccc(F)cc4)o3)CC2)nc2c1[S+]([O-])CC2` (stereo partly drawn) [Example 159], with 94%; and `N#Cc1cccc(C2CCN(c3nc4c(c(NC5(CO)CC5)n3)[S+]([O-])CC4)CC2)c1` (stereo not drawn) [Example 107], with 94%; and `[O-][S+]1CCc2nc(N3CCC(c4ccc(Br)cc4)CC3)nc(NC3(CO)CC3)c21` (stereo not drawn) [Example 92, (1-{2-[4-(4-Bromophenyl)-Piperidin-1-Yl]-5-Oxo-6,7-Dihydro-5H-5λ^4-Thieno[3,2-d]Pyrimidin-4-Ylamino}-Cyclopropyl)-Methanol], with 94%. On the same count and under the same terms, the result for `O=C1Nc2ccccc2C2(CCN(c3nc4c(c(NC5CCOCC5)n3)[S+]([O-])CC4)CC2)O1` (stereo not drawn) [Example 65] reads 94%.

Compound `[O-][S+]1CCc2nc(N3CCC(c4ccc(F)cc4)CC3)nc(NC3(CO)CC3)c21` (stereo not drawn) [Example 11] yielded an inhibition at 1 µM of 94%. The same measure, in the same setting: then `N#Cc1cccc(C2CCN(c3nc4c(c(Nc5cccc(F)c5)n3)[S+]([O-])CC4)CC2)c1` (stereo not drawn) [Example 138], with 96%; and `O=S1(=O)CCc2nc(N3CCC(c4ccc(Cl)cc4)CC3)nc(NC3CCOCC3)c21` [Example 334, {2-[4-(4-chlorophenyl)-piperidin-1-yl]-5.5-dioxo-6,7-dihydro-5H-5λ^6-thieno[3,2-d]pyrimidin-4-yl}-(tetrahydropyran-4-yl)-amine], with 65%; and `CN1C(=O)Nc2ccccc2C12CCN(c1nc3c(c(NC4CCOCC4)n1)[S+]([O-])CC3)CC2` (stereo not drawn) [Example 58, 3′-Methyl-1-(4-(Tetrahydro-2H-Pyran-4-Ylamino)-5-Oxo-6,7-Dihydro-5H-5λ^4-Thieno[3,2-d]Pyrimidin-2-Yl)-1′H-Spiro[Piperidin-4,4′-Quinazolin]-2′(3′H)-One], with 88%. `[O-][S+]1CCc2nc(N3CCC(c4ccc(Br)cc4)CC3)nc(NC3CCOCC3)c21` (stereo not drawn) [Example 93, {2-[4-(4-Bromophenyl)-Piperidin-1-Yl]-5-Oxo-6,7-Dihydro-5H-5λ^4-Thieno[3,2-d]Pyrimidine-4-Yl}-(Tetrahydropyran-4-Yl)-Amine] gave an inhibition at 1 µM of 94%.

In the case of `[O-][S+]1CCc2nc(N3CCC(c4cc(Cl)cc(Cl)c4)CC3)nc(NC3CCOCC3)c21` (stereo not drawn) [Example 97, {2-[4-(3,5-Dichlorophenyl)-Piperidin-1-Yl]-5-Oxo-6,7-Dihydro-5H-5λ^4-Thieno[3,2-d]Pyrimidin-4-Yl}-(Tetrahydropyran-4-Yl)-Amine], the inhibition at 1 µM is 93%. `[O-][S+]1CCc2nc(N3CCC(c4nc(-c5cccnc5)no4)CC3)nc(NC3CCOCC3)c21` (stereo not drawn) [Example 131] yielded an inhibition at 1 µM of 94%. Same read-out and setting: the result for `COc1ccc(C2CCN(c3nc4c(c(NC5CCOCC5)n3)[S+]([O-])CC4)CC2)cc1` (stereo not drawn) [Example 117] reads 94%. Same read-out and setting: the result for `CC(C)[C@H](CO)Nc1nc(N2CCC3(CC2)CN(S(C)(=O)=O)c2ccccc23)nc2c1[S+]([O-])CC2` (stereo partly drawn) [Example 15] reads 67%; that for `CCc1[nH]c2ccc(F)cc2c1C1CCN(c2nc3c(c(N[C@H]4CCC(=O)N(C)C4)n2)[S+]([O-])CC3)CC1` (stereo partly drawn) [Example 52], 96%.

With `CN1C[C@@H](Nc2nc(N3CCC(c4c[nH]cn4)CC3)nc3c2[S+]([O-])CC3)CCC1=O` (stereo partly drawn) [Example 42], at 1 µM the inhibition was 95%.

The assay is the same for the next values; noted with them: test substance 1 μM; one-hour incubation with [H3]-cAMP at 30° C.
Compound `COC1(c2ccc(Cl)cc2)CCN(c2nc3c(c(NC4(CO)CC4)n2)[S+]([O-])CC3)CC1` (stereo not drawn) [Example 314] returned an inhibition at 1 µM of 88%. `CC(C)[C@H](CO)Nc1nc(N2CCC(O)(c3ccc(Cl)cc3)CC2)nc2c1[S+]([O-])CC2` (stereo partly drawn) [Example 296]: at 1 µM the inhibition was 81%. The same measure, in the same setting: then `COC(=O)C1(c2ccccc2)CCN(c2nc3c(c(N[C@H]4CCC(=O)N(C)C4)n2)[S+]([O-])CC3)CC1` (stereo partly drawn) [Example 205, methyl 1-[4-(1-methyl-6-oxopiperidin-3-ylamino)-5-oxo-6,7-dihydro-5H-5λ^4-thieno[3,2-d]pyrimidin-2-yl]-4-phenylpiperidine-4-carboxylate], with 96%; and `COC1(c2ccc(Cl)cc2)CCN(c2nc3c(c(N[C@@H](CO)C(C)C)n2)[S+]([O-])CC3)CC1` (stereo partly drawn) [Example 315], with 89%; and `O=C(N1CCc2ccc(OC3CCN(c4nc5c(c(NC6CCOCC6)n4)[S+]([O-])CC5)CC3)cc2CC1)C(F)(F)F` (stereo not drawn) [Example 182, 2,2,2-Trifluoro-1-(7-{1-[5-Oxo-4-(Tetrahydropyran-4-Ylamino)-6,7-Dihydro-5H-5λ^4-Thieno[3,2-d]Pyrimidin-2-Yl]-Piperidin-4-Yloxy}-1,2,4,5-Tetrahydrobenzo[d]Azepin-3-Yl)-Ethanone], with 82%. The same measure, in the same setting: then `CCCN1C[C@@H](Nc2nc(N3CCC(c4ccc(Cl)cc4)CC3)nc3c2[S+]([O-])CC3)CCC1=O` (stereo partly drawn) [Example 201, 5-{2-[4-(4-chlorophenyl)-piperidin-1-yl]-5-oxo-6,7-dihydro-5H-5λ^4-thieno[3,2-d]pyrimidin-4-ylamino}-1-propylpiperidin-2-one], with 95%; and `COCC1(c2ccc(Cl)cc2)CCN(c2nc3c(c(NC4(CO)CC4)n2)[S+]([O-])CC3)CC1` (stereo not drawn) [Example 303], with 89%; and `Cn1nc(-c2ccco2)cc1C1CCN(c2nc3c(c(NC4CCOCC4)n2)[S+]([O-])CC3)CC1` (stereo not drawn) [Example 200, {2-[4-(5-furan-2-yl-2-methyl-2H-pyrazol-3-yl)-piperidin-1-yl]-5-oxo-6,7-dihydro-5H-5λ^4-thieno[3,2-d]pyrimidin-4-yl}-(tetrahydropyran-4-yl)-amine], with 97%.

In the case of `COCC(=O)NCC1(c2ccccc2)CCN(c2nc3c(c(NC4(CO)CC4)n2)[S+]([O-])CC3)CC1` (stereo not drawn) [Example 216], the inhibition at 1 µM was determined as 80%. `Cn1nc(C2CCN(c3nc4c(c(NC5CCOCC5)n3)[S+]([O-])CC4)CC2)cc1-c1ccco1` (stereo not drawn) [Example 198, {2-[4-(5-furan-2-yl-1-methyl-1H-pyrazol-3-yl)-piperidin-1-yl]-5-oxo-6,7-dihydro-5H-5λ^4-thieno[3,2-d]pyrimidin-4-yl}-(tetrahydropyran-4-yl)-amine] registered an inhibition at 1 µM of 94%. In the case of `CC(C)(NC(=O)c1ccc(C2CCN(c3nc4c(c(NC5CCOCC5)n3)[S+]([O-])CC4)CC2)cc1)c1ccncc1` (stereo not drawn) [Example 223], the inhibition at 1 µM came out at 80%. The same measure, in the same setting: the result for `CC(C)[C@H](CO)Nc1nc(N2CCC(C(=O)c3ccc(F)cc3)(c3ccc(F)cc3)CC2)nc2c1[S+]([O-])CC2` (stereo partly drawn) [Example 298] reads 91%; that for `COC(=O)c1ccc(OC2CCN(c3nc4c(c(NC5CCOCC5)n3)[S+]([O-])CC4)CC2)cc1` (stereo not drawn) [Example 176], 93%. Still for that read-out and setting: the result for `[O-][S+]1CCc2nc(N3CCC(Oc4ccc(F)cc4)CC3)nc(NC3(CO)CC3)c21` (stereo not drawn) [Example 167] reads 91%; that for `CN1C[C@@H](Nc2nc(N3CCC(Oc4ccncc4)CC3)nc3c2[S+]([O-])CC3)CCC1=O` (stereo partly drawn) [Example 264], 94%.
